Source: patent publication US20230042881A1, “MODULATORS OF INTEGRATED STRESS RESPONSE PATHWAY” (Praxis Biotech LLC, priority 2021, published 2023)
Where two headings read alike, the source gives them in different places.

Assays:
ATF4 = ATF4 expression inhibition assay (ATF4 5′UTR luciferase reporter, thapsigargin-stressed); assay type: cell-based; conditions: Homo sapiens, HEK-293T, read-out: ATF4 inhibition
Description: The ATF4 reporter was prepared by fusing the human full length 5′UTR of ATF4 (NCBI Accession No. BC022088.2) upstream of the firefly luciferase coding sequence lacking the initiator methionine. The fused sequence was cloned into pLenti-EF1a-C-Myc-DDK-IRES-Puro cloning vector (Origen #PS100085) using standard methods.
HEK293T cells carrying the ATF4 luciferase reporter were plated on 96-well plates (Nunc) at 10,000 cells per well. Cells were treated two days after seeding with 100 nM thapsigargin (Tg) (Sigma-Aldrich #T9033) in the presence of different concentrations of selected compounds ranging from 0.1 nM to […]. Cells without treatment or cells treated with Tg alone were used as controls. Assay plates containing cells were incubated for 3 hours at 37° C.
Luciferase reactions were performed using Luciferase Assay System (Promega #E1501) as specified by the manufacturer. Luminescence was read with an integration time of 1 s and a gain of 110 using a Cytation-5 multi-mode microplate reader (BioTek).

[1] = tested on: Chinese hamster ovary (CHO) cells; test: Protein synthesis assay (puromycin incorporation, Western blot); assay type: cell-based; conditions: Cricetulus griseus, read-out: % Protein synthesis relative to untreated (1 μM test compound)
Description: Chinese hamster ovary (CHO) cells were maintained at 37° C. and 5% CO2 in Dulbecco's Modified Eagle's Media (DMEM) supplemented with 10% fetal bovine serum, 2 mM L-glutamine, 100 U/ml penicillin, and 100 μg/ml streptomycin. After reaching 80% of confluence, cells were detached and seeded on 6 well plates in complete media, allowed to recover overnight and treated for 2 hours with 1 μM of the test compound (to assess protein synthesis levels in unstressed condition), or for 2 hours with 300 nM Tg in the presence of 1 μM of the test compound (to assess the recovery of protein synthesis in a stressed condition). Cells with Tg alone were used as controls.
After the 2 hours treatments, media were replaced by adding 10 μg/ml puromycin (Sigma Aldrich #P8833) in complete media for 30 min. Media were removed and cells were lysed with SDS-PAGE lysis buffer. Lysates were transferred to 1.5 ml tubes and sonicated for 3 min and total protein amount were quantified using BCA Protein Assay Kit (Pierce). Equal amount of protein (30 μg) was loaded on SDS-PAGE gels.
A HRP-conjugated secondary antibody (Rockland) was employed to detect immune-reactive bands using enhanced chemiluminescence (ECL Western Blotting Substrate, Pierce). Quantification of protein bands was done by densitometry using ImageJ software.
The percentage levels were normalized to the media alone condition, which correspond to 100% protein synthesis. […]

[2] = HEK293T cells carrying ATF4 luciferase reporter, 100 nM thapsigargin (Tg), 3 hours at 37° C.
[3] = unstressed CHO cells (without Tg), 2 hours, 1 μM test compound, media alone = 100%

SMILES | IC50 (ATF4; 3 h) | activity at 1 µM ([1]; CHO, 2 h) | IC50 (ATF4; [2]) | activity at 1 µM [1, 3]
O=C(COc1ccc(Cl)cc1)N[C@H]1CC[C@H](C(=O)Nc2ccc3cc(Cl)ccc3n2)CC1 [Compound 1, trans-4-(2-(4-chlorophenoxy)acetamido)-N-(6-chloroquinolin-2-yl)cyclohexane-1-carboxamide] | < 10 nM | 91.8% | – | –
O=C(N[C@H]1CC[C@H](C(=O)Nc2ccc3cc(Cl)ccc3n2)CC1)c1ccc2cc(Cl)ccc2n1 [Compound 2, trans-6-chloro-N-(4-((6-chloroquinolin-2-yl)carbamoyl)cyclohexyl)quinoline-2-carboxamide] | – | – | < 10 nM | 163%
O=C(COc1ccc(Cl)c(F)c1)N[C@H]1CC[C@H](C(=O)Nc2ccc3cc(Cl)ccc3n2)CC1 [Compound 3, trans-4-(2-(4-chloro-3-fluorophenoxy)acetamido)-N-(6-chloroquinolin-2-yl)cyclohexane-1-carboxamide] | – | – | < 10 nM | 188%
O=C(N[C@H]1CC[C@H](C(=O)Nc2ccc3cc(Cl)ccc3n2)CC1)c1cc2cc(Cl)ccc2o1 [Compound 4, trans-5-chloro-N-(4-((6-chloroquinolin-2-yl)carbamoyl)cyclohexyl)benzofuran-2-carboxamide] | – | – | < 10 nM | 204%
O=C(N[C@H]1CC[C@H](C(=O)Nc2ccc3cc(Cl)ccc3n2)CC1)C1CNc2cc(Cl)ccc2O1 (stereo partly drawn) [Compound 5, trans-6-chloro-N-(4-((6-chloroquinolin-2-yl)carbamoyl)cyclohexyl)-3,4-dihydro-2H-benzo[b][1,4]oxazine-2-carboxamide] | – | – | < 10 nM | 195%
O=C(N[C@H]1CC[C@H](C(=O)Nc2ccc3cc(Cl)ccc3n2)CC1)[C@H]1CNc2cc(Cl)ccc2O1 [Compound 6, trans-(R)-6-chloro-N-(4-((6-chloroquinolin-2-yl)carbamoyl)cyclohexyl)-3,4-dihydro-2H-benzo[b][1,4]oxazine-2-carboxamide] | – | – | < 10 nM | 100%
O=C(N[C@H]1CC[C@H](C(=O)Nc2ccc3cc(Cl)ccc3n2)CC1)[C@@H]1CNc2cc(Cl)ccc2O1 [Compound 7, trans-(S)-6-chloro-N-(4-((6-chloroquinolin-2-yl)carbamoyl)cyclohexyl)-3,4-dihydro-2H-benzo[b][1,4]oxazine-2-carboxamide] | – | – | < 10 nM | 115%
O=C(Nc1ccc2cc(Cl)ccc2n1)C1CCN(C[C@@H](O)COc2ccc(Cl)c(F)c2)CC1 [Compound 8, (R)-1-(3-(4-chloro-3-fluorophenoxy)-2-hydroxypropyl)-N-(6-chloroquinolin-2-yl)piperidine-4-carboxamide] | – | – | 10 to 100 nM | 156%
O=C(Nc1ccc2cc(Cl)ccc2n1)C1CCN(C[C@H](O)COc2ccc(Cl)c(F)c2)CC1 [Compound 9, (S)-1-(3-(4-chloro-3-fluorophenoxy)-2-hydroxypropyl)-N-(6-chloroquinolin-2-yl)piperidine-4-carboxamide] | – | – | 100 to 1000 nM | 156%
O=C(Nc1ccc2cc(Cl)ccc2n1)C1CCN(CCCOc2ccc(Cl)c(F)c2)CC1 [Compound 10, 1-(3-(4-chloro-3-fluorophenoxy)propyl)-N-(6-chloroquinolin-2-yl)piperidine-4-carboxamide] | – | – | 10 to 100 nM | 153%
O=C(Nc1ccc2cc(Cl)ccc2n1)[C@H]1CC[C@H](NCCOc2ccc(Cl)c(F)c2)CC1 [Compound 11, trans-4-(2-(4-chloro-3-fluorophenoxy)ethylamino)-N-(6-chloroquinolin-2-yl)cyclohexane-1-carboxamide] | – | – | 100 to 1000 nM | 150%
O=C(NN1CCC(C(=O)Nc2ccc3cc(Cl)ccc3n2)CC1)c1cc2cc(Cl)ccc2o1 [Compound 12, 1-(5-chlorobenzofuran-2-carboxamido)-N-(6-chloroquinolin-2-yl)piperidine-4-carboxamide] | – | – | < 10 nM | 121%
O=C(COc1ccc(Cl)c(F)c1)N[C@H]1CC[C@H](C(=O)Nc2nc3cc(Cl)ccc3o2)CC1 [Compound 13, trans-4-(2-(4-chloro-3-fluorophenoxy)acetamido)-N-(5-chlorobenzo[d]oxazol-2-yl)cyclohexane-1-carboxamide] | 10 to 100 nM | 104% | – | –
O=C(C[C@H]1CC[C@H](NC(=O)COc2ccc(Cl)c(F)c2)CC1)Nc1ccc2cc(Cl)ccc2n1 [Compound 21, trans-2-(4-chloro-3-fluorophenoxy)-N-(4-(2-((6-chloroquinolin-2-yl)amino)-2-oxoethyl)cyclohexyl)acetamide] | 100 to 1000 nM | – | – | –
O=C(NC[C@H]1CC[C@H](C(=O)Nc2ccc3cc(Cl)ccc3n2)CC1)c1cnc(C(F)F)cn1 [Compound 23, trans-N-((4-((6-chloroquinolin-2-yl)carbamoyl)cyclohexyl)methyl)-5-(difluoromethyl)pyrazine-2-carboxamide] | – | – | > 1000 nM | –
O=C(NC[C@H]1CC[C@H](C(=O)Nc2ccc3cc(Cl)ccc3n2)CC1)c1ccc(C(F)(F)F)nc1 [Compound 37, trans-N-((4-((6-chloroquinolin-2-yl)carbamoyl)cyclohexyl)methyl)-6-(trifluoromethyl)nicotinamide] | – | – | 100 to 1000 nM | –
O=C(NC[C@H]1CC[C@H](C(=O)Nc2ccc3cc(Cl)ccc3n2)CC1)c1ccc(C(F)(F)F)cn1 [Compound 38, trans-N-((4-((6-chloroquinolin-2-yl)carbamoyl)cyclohexyl)methyl)-5-(trifluoromethyl)picolinamide] | – | – | 100 to 1000 nM | –
O=C(NC[C@H]1CC[C@H](C(=O)NCc2cc3cc(Cl)ccc3o2)CC1)c1ccc(C(F)(F)F)nc1 [Compound 51, N-((trans-4-(((5-chlorobenzofuran-2-yl)methyl)carbamoyl)cyclohexyl)methyl)-6-(trifluoromethyl)nicotinamide] | – | – | 100 to 1000 nM | –
O=C(NC[C@H]1CC[C@H](C(=O)NCc2cc3cc(Cl)ccc3o2)CC1)c1ccc(C(F)(F)F)cn1 [Compound 52, N-((trans-4-(((5-chlorobenzofuran-2-yl)methyl)carbamoyl)cyclohexyl)methyl)-5-(trifluoromethyl)picolinamide] | – | – | 100 to 1000 nM | –
O=C(CO[C@H]1C[C@@H](OC(F)(F)F)C1)NN1CCC(C(=O)NCc2cc3cc(Cl)ccc3o2)CC1 [Compound 56, N-((5-chlorobenzofuran-2-yl)methyl)-1-(2-(cis-3-(trifluoromethoxy)cyclobutoxy)acetamido)piperidine-4-carboxamide] | – | – | 100 to 1000 nM | –
O=C(CO[C@H]1C[C@@H](OC(F)(F)F)C1)N[C@H]1CC[C@H](C(=O)NCc2cc3cc(Cl)ccc3o2)CC1 [Compound 59, trans-N-((5-chlorobenzofuran-2-yl)methyl)-4-(2-(cis-3-(trifluoromethoxy)cyclobutoxy)acetamido)cyclohexane-1-carboxamide] | – | – | 100 to 1000 nM | –
O=C(CO[C@H]1C[C@@H](OC(F)(F)F)C1)N[C@H]1CC[C@H](C(=O)NCC2CNc3cc(Cl)ccc3O2)CC1 (stereo partly drawn) [Compound 79, trans-N-((6-chloro-3,4-dihydro-2H-benzo[b][1,4]oxazin-2-yl)methyl)-4-(2-(cis-3-(trifluoromethoxy)cyclobutoxy)acetamido)cyclohexane-1-carboxamide] | – | – | 100 to 1000 nM | –
O=C(CO[C@H]1C[C@@H](OC(F)(F)F)C1)NN1CCC(C(=O)NCC2CNc3cc(Cl)ccc3O2)CC1 (stereo partly drawn) [Compound 80, N-((6-chloro-3,4-dihydro-2H-benzo[b][1,4]oxazin-2-yl)methyl)-1-(2-(cis-3-(trifluoromethoxy)cyclobutoxy)acetamido)piperidine-4-carboxamide] | – | – | 100 to 1000 nM | –
O=C(CO[C@H]1C[C@@H](OC(F)(F)F)C1)N[C@H]1CC[C@H](C(=O)Nc2nc3cc(Cl)ccc3o2)CC1 [Compound 101, trans-N-(5-chlorobenzo[d]oxazol-2-yl)-4-(2-(cis-3-(trifluoromethoxy)cyclobutoxy)acetamido)cyclohexanecarboxamide] | 100 to 1000 nM | – | – | –
O=C(CO[C@H]1C[C@@H](OC(F)(F)F)C1)NN1CCC(C(=O)Nc2nc3cc(Cl)ccc3s2)CC1 [Compound 121, N-(5-chlorobenzo[d]thiazol-2-yl)-1-(2-(cis-3-(trifluoromethoxy)cyclobutoxy)acetamido)piperidine-4-carboxamide] | – | – | 100 to 1000 nM | –
O=C(Nc1nc2cc(Cl)ccc2s1)[C@H]1CC[C@H](C(=O)N[C@H]2C[C@@H](OC(F)(F)F)C2)CC1 [Compound 123] | – | – | 100 to 1000 nM | –
